The results in this text go back to PubChem BioAssay (NCI).

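Where inhibition never reached the appropriate level, the endpoint shown equals the highest concentration tested. Otherwise, values were interpolated linearly from a five-concentration, 48-hour dose response in 96-well plates. TGI denotes the concentration required for complete inhibition of growth.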

Among the test systems are LOX IMVI melanoma; A549 NSCLC; NCI/ADR-RES ovarian; EKVX NSCLC; HOP-92 NSCLC; NCI-H522 lung; MDA-N; K-562 leukemia; KM12 colon; U251 CNS; NCI-H460 lung; SNB-19 CNS; T-47D breast; HT29 colon; ACHN renal; A498 renal; RPMI-8226 leukemia.
Common to all, as to experiment: NCI-60 cell line screen, 48 h

Consider `OC1=C2c3ccccc3NC2Oc2cc(F)ccc21` (stereo not given), for which the TGI in the assay with LOX IMVI melanoma worked out at 39.3 µM; in the assay on A549 NSCLC, 52.7 µM; with NCI/ADR-RES ovarian, 47.3 µM; in the assay on EKVX NSCLC, 22.4 µM; with HOP-92 NSCLC, 54.1 µM; with NCI-H522 lung, 52.8 µM. Also, the TGI was 31.4 µM in the assay with MDA-N; 48.5 µM with K-562 leukemia; 31.2 µM in the assay on KM12 colon; 29.6 µM in the assay on U251 CNS; 38.5 µM in the assay with NCI-H460 lung; 44.6 µM in the assay with SNB-19 CNS. Besides, the TGI in the assay on T-47D breast was determined as 68.1 µM; with HT29 colon it was 38 µM; in the assay with ACHN renal, 46.7 µM; with A498 renal it was 32.4 µM.

`CC(=O)OCC1OC(NC(=S)Nn2c(=O)[nH]c3ccccc3c2=O)C(OC(C)=O)C(OC(C)=O)C1OC(C)=O` (stereo not given): the TGI in the assay with LOX IMVI melanoma, in the assay with A549 NSCLC, in the assay with NCI/ADR-RES ovarian, in the assay on EKVX NSCLC, in the assay on RPMI-8226 leukemia and in the assay on HOP-92 NSCLC was greater than 100 µM each time. Besides, the TGI with NCI-H522 lung, in the assay with MDA-N, in the assay with KM12 colon, with U251 CNS, in the assay with NCI-H460 lung and in the assay on SNB-19 CNS was greater than 100 µM in each case. For the same compound, the TGI with T-47D breast, in the assay on HT29 colon, with ACHN renal and in the assay on A498 renal was greater than 100 µM throughout.

As for `CCN(CCCl)c1cc(CN(C)C)cc(NC(=O)c2ccc(C(=O)Nc3cc(CN(C)C)cc(N(CC)CCCl)c3)cc2)c1`, the TGI is 0.712 µM in the assay with LOX IMVI melanoma; 3.89 µM in the assay on A549 NSCLC; greater than 100 µM in the assay on NCI/ADR-RES ovarian; 5.58 µM in the assay on EKVX NSCLC; 1.02 µM in the assay with RPMI-8226 leukemia; 0.662 µM in the assay with HOP-92 NSCLC. The TGI is 0.234 µM in the assay on NCI-H522 lung; 0.594 µM in the assay with MDA-N; 1.6 µM with K-562 leukemia; 1.36 µM in the assay on KM12 colon; 1.64 µM in the assay with U251 CNS; 1.54 µM with NCI-H460 lung. Besides, the TGI turned out to be 0.936 µM in the assay on SNB-19 CNS, 15.4 µM in the assay on T-47D breast, 3.55 µM in the assay on HT29 colon and 0.994 µM in the assay on ACHN renal.

On to `CC1(C)C2CC(O)C1(C)CC2=O` (stereo not given), for which the TGI in the assay on LOX IMVI melanoma, with A549 NSCLC, with NCI/ADR-RES ovarian, with RPMI-8226 leukemia, in the assay on HOP-92 NSCLC and with NCI-H522 lung was greater than 100 µM throughout. Also, the TGI in the assay with MDA-N, with K-562 leukemia, with KM12 colon, in the assay with U251 CNS, in the assay on NCI-H460 lung and with SNB-19 CNS was greater than 100 µM each time. Also, the TGI with T-47D breast, in the assay on HT29 colon and with ACHN renal was greater than 100 µM each time.

For the compound `O=C1c2c(Br)sc(Br)c2C(NC(=O)C(F)(F)F)C1O` (stereo not given), the TGI stood at 44.5 µM in the assay with LOX IMVI melanoma; 58.5 µM in the assay on A549 NSCLC; 75.2 µM in the assay with NCI/ADR-RES ovarian; 39.5 µM in the assay with EKVX NSCLC; 35.9 µM with HOP-92 NSCLC; 27.3 µM with NCI-H522 lung. For the same compound, the TGI in the assay with MDA-N is 40.4 µM; in the assay with K-562 leukemia it was greater than 100 µM; in the assay on KM12 colon it was 91.6 µM; in the assay on U251 CNS, 37.4 µM; in the assay on NCI-H460 lung it was 36 µM; with SNB-19 CNS, 56.4 µM. In addition, the TGI in the assay with T-47D breast is 55.9 µM; in the assay on HT29 colon, 53.6 µM; with ACHN renal it was 84.2 µM; with A498 renal it was greater than 100 µM.

In the case of `O=c1[nH]c(=O)n(C/C=C/CO)nc1Br`, the TGI in the assay with LOX IMVI melanoma, in the assay on A549 NSCLC, in the assay with NCI/ADR-RES ovarian, in the assay with EKVX NSCLC, in the assay on RPMI-8226 leukemia and in the assay with HOP-92 NSCLC was greater than 100 µM each time. Further, the TGI in the assay with NCI-H522 lung, in the assay on MDA-N, with KM12 colon, in the assay on U251 CNS, in the assay with NCI-H460 lung and in the assay on SNB-19 CNS was greater than 100 µM each time. The TGI in the assay with T-47D breast, with HT29 colon, in the assay on ACHN renal and with A498 renal was greater than 100 µM each time.

Consider `CSC1=N/C(=C\c2ccc(C)cc2)C(=O)N1`, for which the TGI in the assay on LOX IMVI melanoma, in the assay on A549 NSCLC, in the assay on NCI/ADR-RES ovarian, in the assay with EKVX NSCLC, in the assay on RPMI-8226 leukemia and in the assay on HOP-92 NSCLC was greater than 100 µM in each case. For the same compound, the TGI in the assay on NCI-H522 lung, with MDA-N, in the assay with KM12 colon, in the assay with U251 CNS, in the assay on SNB-19 CNS and in the assay on T-47D breast was greater than 100 µM throughout. The TGI with HT29 colon and with ACHN renal was greater than 100 µM in each case.

In the case of `CC12Nc3c(Cl)cc(Cl)cc3N1C(=O)c1ccccc12` (stereo not given), the TGI in the assay on LOX IMVI melanoma was greater than 100 µM; in the assay on A549 NSCLC, greater than 100 µM; in the assay with NCI/ADR-RES ovarian, greater than 100 µM; in the assay with EKVX NSCLC it was greater than 100 µM; with RPMI-8226 leukemia it was greater than 100 µM; with HOP-92 NSCLC, 82.1 µM. Besides, the TGI in the assay with NCI-H522 lung, in the assay on MDA-N, in the assay with KM12 colon, with U251 CNS, in the assay on NCI-H460 lung and in the assay with T-47D breast was greater than 100 µM throughout. In addition, the TGI in the assay with HT29 colon was greater than 100 µM; in the assay with ACHN renal it was greater than 100 µM; in the assay with A498 renal it was 99.9 µM.

`CC(=O)OC1=NN=C2COC(c3ccccc3OC(C)=O)=NN2C1`: the TGI with LOX IMVI melanoma, with A549 NSCLC, in the assay on NCI/ADR-RES ovarian, in the assay on EKVX NSCLC, in the assay on RPMI-8226 leukemia and with HOP-92 NSCLC was greater than 50 µM each time. The TGI in the assay with NCI-H522 lung, in the assay on MDA-N, in the assay with K-562 leukemia, in the assay with KM12 colon, in the assay with U251 CNS and in the assay with NCI-H460 lung was greater than 50 µM in each case. Moreover, the TGI in the assay on SNB-19 CNS, in the assay on T-47D breast, in the assay on HT29 colon and with ACHN renal was greater than 50 µM throughout.

Turning to `Cc1c(N=Nc2ccccc2)c(-c2ccccc2)n(C2OC(CO)C(O)C(O)C2O)c(=S)c1C#N` (stereo not given), the TGI was 12.4 µM with LOX IMVI melanoma; 21.5 µM in the assay on A549 NSCLC; 46.6 µM in the assay with NCI/ADR-RES ovarian; 42.5 µM in the assay on EKVX NSCLC; greater than 100 µM in the assay with RPMI-8226 leukemia; 14.1 µM with NCI-H522 lung. The TGI in the assay on MDA-N is 20.1 µM; in the assay on K-562 leukemia, greater than 100 µM; with KM12 colon it was 11.6 µM; with U251 CNS, 17.7 µM; with NCI-H460 lung it was 97.6 µM; in the assay on SNB-19 CNS it was 27.8 µM. The TGI in the assay with T-47D breast turned out to be 4.74 µM; in the assay with HT29 colon it was 29.7 µM; with ACHN renal it was 18.8 µM; in the assay with A498 renal, 32.5 µM.

Take `CN(C)CCn1c(=O)c2ccc(NCCNCCO)c3c(=O)c4ccccc4n(c1=O)c23`: the TGI in the assay on LOX IMVI melanoma is 0.78 µM; in the assay with A549 NSCLC, 3.16 µM; in the assay with NCI/ADR-RES ovarian, 16.3 µM; with EKVX NSCLC, 2.41 µM; in the assay with HOP-92 NSCLC, 0.604 µM; in the assay on NCI-H522 lung, 0.34 µM. The TGI in the assay on MDA-N turned out to be 1.78 µM; in the assay with K-562 leukemia it was 1.08 µM; in the assay with KM12 colon, 2.42 µM; in the assay with U251 CNS it was 3.07 µM; in the assay on SNB-19 CNS, 3.98 µM; in the assay on T-47D breast it was 7.61 µM. In addition, the TGI with HT29 colon turned out to be 4.6 µM; in the assay with ACHN renal, 15.9 µM; in the assay on A498 renal, 0.458 µM.

For `CC(C)(C)c1cc(S(=O)(=O)O)c2oc(-c3ccccc3)cc(=O)c2c1`, the TGI in the assay on LOX IMVI melanoma, in the assay with A549 NSCLC, in the assay with NCI/ADR-RES ovarian, with EKVX NSCLC, in the assay on RPMI-8226 leukemia and in the assay with NCI-H522 lung was greater than 100 µM each time. Moreover, the TGI with MDA-N, in the assay on K-562 leukemia, with KM12 colon, in the assay on U251 CNS, with NCI-H460 lung and in the assay with SNB-19 CNS was greater than 100 µM throughout. Moreover, the TGI with T-47D breast, in the assay on HT29 colon and in the assay on ACHN renal was greater than 100 µM throughout.

`CC(=O)NC1C(OCc2ccccc2)OC(CO)C(O)C1OC(C)C(=O)NC(C(=O)NC(CCC(=O)NCCCC(=O)Nc1ccc2c(c1)CN1C(=O)c3ccccc3C1=N2)C(N)=O)C(C)C` (stereo not given): the TGI in the assay with LOX IMVI melanoma, in the assay on A549 NSCLC, with NCI/ADR-RES ovarian, in the assay on EKVX NSCLC, in the assay with RPMI-8226 leukemia and in the assay with HOP-92 NSCLC was greater than 100 µM throughout. Besides, the TGI in the assay with MDA-N, in the assay on K-562 leukemia, in the assay with KM12 colon, in the assay on U251 CNS, in the assay with NCI-H460 lung and with SNB-19 CNS was greater than 100 µM each time. For the same compound, the TGI in the assay on T-47D breast, in the assay with HT29 colon, in the assay with ACHN renal and with A498 renal was greater than 100 µM in each case.

Regarding `CCCCNC(=S)Nc1nc(C(=O)NNC(=S)NCC)cs1`, the TGI in the assay with LOX IMVI melanoma, in the assay with A549 NSCLC, in the assay on NCI/ADR-RES ovarian, with EKVX NSCLC, in the assay on RPMI-8226 leukemia and in the assay with NCI-H522 lung was greater than 100 µM each time. Also, the TGI with MDA-N is greater than 100 µM; with KM12 colon, greater than 100 µM; with U251 CNS, greater than 100 µM; with T-47D breast, 71.3 µM; in the assay on HT29 colon, greater than 100 µM; in the assay with ACHN renal, greater than 100 µM. For the same compound, the TGI with A498 renal is greater than 100 µM.
